2 compounds from paper PMC4104029, “Mechanism of Action of Compound-13: An α1-Selective Small Molecule Activator of AMPK” (Chemistry & Biology, 2014) can be followed below.

Assay [1] deals with rat liver AMPK (mixture of α1β1γ1 and α2β1γ1). The experiment in a line: Rat liver AMPK activation assay. The assay is classed as biochemical. Conditions: for EC50: 0.2 mM ATP and 0.2 mM AMARA. On the procedure: AMPK phosphotransferase activity was assayed in reactions (50 μl) containing 50 mM HEPES, pH 7.4, 10 mM MgCl2, 0.1 mM EGTA, 1 mM DTT, 0.01% BRIJ-35, 100 μM [γ-^32P]ATP (∼250 CPM⋅pmol^−1) and 200 μM AMARA (AMARAASAAALARRR). Reactions were started by the addition of AMPK (5 mU), incubated for 20 min at 30°C and quenched by spotting onto P81 and immersion in 75 mM H3PO4. Washed filters were dried and [^32P] incorporation determined by Cherenkov counting. AMPK activity in cell extracts was determined by immunoprecipitation with AMPKα1 or AMPKα2 antibodies from 50 μg material, as previously described ([Hunter et al., 2011]). Results are expressed as picomoles Pi incorporated per minute-milligram or the fold increase in activity compared to controls in the absence of the compound and were fitted to the following equation: v=vo+{(vmax−vo)[A]^h/Kah+[A]^h}, where v is the velocity, vo is the velocity in the absence of compound, [A] is the concentration of activator, Ka is the concentration of activator that increases velocity to 50% maximal stimulated activity, and h is the Hill coefficient. […]
Figure S3, related to Figure 2. C2 is a partial agonist of rat liver AMPK and is antagonised by ADP but has no effect on isolated AMPKα subunits. (A) Full-length human AMPKα1 and α2 subunits were prepared in E.coli and activated with CAMKK as described in Methods. Isolated AMPKα subunits were assayed under standard conditions in the presence of C2 (0 - 1000 nM). Results are expressed normalised to maximal activity in the absence of ligand and represent the average ± SD of three independent experiments on a single preparation of kinase. (B) Rat liver purified AMPK (containing α1 and α2 subunits in complex with β1γ1) was assayed for activation by AMP and C2 in the presence of 0.2 mM ATP and 0.2 mM AMARA as described in Methods. Results are expressed as mean Pi incorporated in nmol.min-1.mg-1 ± SD. (C) Rat liver AMPK was assayed under standard conditions in the presence of saturating AMP (30 µM) and increasing concentrations of C2 (0 - 10 µM). (D) Recombinant AMPK α1β1γ1 was assayed under standard conditions in the presence of 1 μM C2 and increasing concentrations of ADP (0 - 200 μM). Results are expressed as fold increase in activity relative to controls in the absence of compound ± SD.
(E) C2 and AMP displace a GST-AMPKγ2 subunit fusion from ATP-γ-Sepharose. A purified C-terminal fragment of AMPKγ2 bearing CBS domains 1-4 was absorbed onto ATP- […]
Sepharose. […]
PAGE and staining with colloidal Coomassie. (F) Recombinant PP2Cα was assayed by monitoring the release of phosphate from 100 μM EFLR(pT)SCGS in the presence of increasing concentrations of C2 (0 – 100 μM). The plant alkaloid, sanguinarine was included as a positive control for inhibition of phosphatase activity. […]

Assay [2] addresses T1, GST-AMPKγ2 subunit fusion (Homo sapiens, UniProt Q9UGJ0).
T1 construct: A C-terminal fragment of AMPKγ2 bearing CBS domains 1-4 (247-569) was expressed in; made in house; host or cells: E. coli
The experiment in a line: Competitive elution of AMPKγ2 from ATP-Sepharose. The assay is classed as binding. Conditions: C2 and AMP to the same extent. On the procedure: Supplemental Figure Legends:
Figure S1, related to Figures 1-3. Subunit composition of AMPK preparations used in this study. (A) Heterotrimeric AMPK complexes (10 ng) produced in both Sf9 (Sigma and Signalchem) and E.coli (in our laboratory) were analysed by Western blotting using isoform specific antibodies. Note that both the α2/α1-HOOK and α2/α1-LOOP chimeras are no longer recognised by the anti-α2 antibody as the epitope has been replaced (see Fig S4). (B) Heterotrimeric AMPK α2/α1 chimeric complexes expressed in E.coli (2 μg) were separated by SDS-PAGE and stained with Coomassie G-250. Arrows indicate the position of the […]
Figure S2, related to Figure 1. C2 has negligible effects on a panel of 138 protein kinases.
Kinase inhibition screen was performed by the International Centre for Kinase profiling (Dundee). Assays were performed in duplicate using 10 µM C2 and are representative of two independent screens. Results are shown in rank order as mean % activity compared with controls in the absence of compound ± SD. […]
Figure S3, related to Figure 2. […] Results are expressed as mean Pi incorporated in nmol.min-1.mg-1 ± SD. […] Results are expressed as fold increase in activity relative to controls in the absence of compound ± SD.
(E) C2 and AMP displace a GST-AMPKγ2 subunit fusion from ATP-γ-Sepharose. […] The presence of eluted AMPKγ2 was analysed by SDS-PAGE and staining with colloidal Coomassie. […]

T1 sequence (Q9UGJ0 247-569): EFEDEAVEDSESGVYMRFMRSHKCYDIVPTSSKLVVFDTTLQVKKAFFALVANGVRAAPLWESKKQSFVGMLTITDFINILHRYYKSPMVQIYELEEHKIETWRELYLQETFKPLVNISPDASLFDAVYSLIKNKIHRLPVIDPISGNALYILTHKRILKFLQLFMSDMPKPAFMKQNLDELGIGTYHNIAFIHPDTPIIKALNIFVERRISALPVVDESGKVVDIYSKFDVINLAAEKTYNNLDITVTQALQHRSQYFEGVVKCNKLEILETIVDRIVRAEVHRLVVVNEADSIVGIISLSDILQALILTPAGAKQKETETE

What is called EC50 is the midpoint of the concentration-response curve. For the compound `Nc1ncnc2c1ncn2[C@@H]1O[C@H](COP(=O)(O)O)[C@@H](O)[C@H]1O` [AMP, reference compound], in assay [1], the EC50 turned out to be 3600 ± 200 nM. The “displacement from ATP-γ-Sepharose” value in assay [2] was “displaced”.
For the compound `O=P(O)(O)c1ccc(-c2cc(O)on2)o1` [Compound C2, 5-(5-hydroxyl-isoxazol-3-yl)-furan-2-phosphonic acid], in assay [1], the “extent of activation compared with AMP” value is reported as “only half the extent” and the EC50 was determined as 65 ± 4 nM. The “reduction of activity stimulated by 30 μM AMP” value in assay [1] (C2 0–10 µM) was “≈ 50%”. In addition, in assay [2], the “displacement from ATP-γ-Sepharose” value is listed as “displaced”.
